Data reported in article PMC6312196 (ChemMedChem, 2018).
Changes are numbered by the printed parent chain. Read-outs that look alike come from different tables or passages of the source.

Experiments:
ABL1 = target: T1, ABL1 (Homo sapiens, UniProt P00519); test: Enzymatic inhibition of ABL1 wild type; assay type: biochemical; conditions: read-out: IC50 ABL1 wild type; enzyme, Figure 8A
T1 sequence (P00519 242-493 limits assumed): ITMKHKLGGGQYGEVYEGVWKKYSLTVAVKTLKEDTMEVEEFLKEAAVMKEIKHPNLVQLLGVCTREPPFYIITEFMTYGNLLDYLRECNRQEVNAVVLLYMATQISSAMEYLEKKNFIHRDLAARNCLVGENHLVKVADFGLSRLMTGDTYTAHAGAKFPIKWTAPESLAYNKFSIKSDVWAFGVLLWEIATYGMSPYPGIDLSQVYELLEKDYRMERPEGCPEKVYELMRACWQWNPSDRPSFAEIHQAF

ABL1(T315I) [1] = target: T2, ABL1(T315I) (Homo sapiens, UniProt P00519, T315I); test: Enzymatic inhibition of ABL1; assay type: biochemical; conditions: read-out: IC50 ABL1(T315I); enzyme, Figure 8B
T2 sequence (P00519 242-493 T315I limits assumed): T1 sequence (P00519 242-493 limits assumed) with T74I

K562 = test: Cellular proliferation assay; assay type: cell-based; conditions: read-out: IC50 (mean ±SD) K562
KCL22 = test: Cellular proliferation assay; assay type: cell-based; conditions: read-out: IC50 (mean ±SD) KCL22
KCL22-IR = test: Cellular proliferation assay; assay type: cell-based; conditions: 72 h
ABL1(T315I) [2] = target: ABL1(T315I) (Homo sapiens, UniProt P00519+P11274, T315I); test: Cellular ABL1 kinase phosphorylation assay in KCL22-IR; conditions: read-out: IC50 (mean ±SD) cellular ABL1 activity, KCL22-IR; 2 hours incubation, KCL22-T315I cells
[3] = cited from earlier work
[4] = read-out: IC50 (mean ±SD) KCL22-IR, anti-proliferation, T315I mutation

`CN1CCN(Cc2ccc(NC(=O)c3cncc(C#Cc4c(N)ncc5ccc(F)cc45)c3)cc2C(F)(F)F)CC1` [Compound 29] gave an IC50 (ABL1) of less than 5 nM, an IC50 (ABL1(T315I) [1]) of 32.8 nM and an IC50 (K562; anti-proliferation, 72 h) of 0.688 ± 0.003 nM. It also gave an IC50 (KCL22; anti-proliferation, 72 h) of 0.444 ± 0.008 nM, an IC50 (KCL22-IR; [4]) of 4.1 ± 0.03 nM and an IC50 (ABL1(T315I) [2]) of 36.4 ± 1.1 nM.
In the case of `Cc1ccc(C(=O)Nc2ccc(CN3CCN(C)CC3)c(C(F)(F)F)c2)cc1C#Cc1cnc2cccnn12` [Ponatinib, reference compound], the IC50 (K562; Homo sapiens, K562, 72 h) is reported as 0.6003 ± 0.0023 nM, the IC50 (KCL22; Homo sapiens, KCL-22, 72 h) is reported as 0.142 ± 0.003 nM and the IC50 (KCL22-IR; read-out: IC50 (mean ±SD) KCL22-IR) is reported as 0.66 ± 0.005 nM. The “patients reporting serious and non-serious thrombotic events” value ([3]; cardiovascular, cerebrovascular, peripheral vascular events) was 17.1% and the “deaths linked to the use of the drug” value ([3]; study n=499) was “Five”.
Work on `Cc1ccc(C(=O)Nc2ccc(CN3CCN(C)CC3)c(C(F)(F)F)c2)cc1C#Cc1cnc(N)c2ncccc12` [Compound 9] yielded an IC50 (K562; anti-proliferation, 72 h) of 1.85 ± 0.03 nM, an IC50 (KCL22; anti-proliferation, 72 h) of 0.18 ± 0.004 nM and an IC50 (KCL22-IR; [4]) of 0.74 ± 0.004 nM.
Work on `CN1CCN(Cc2ccc(NC(=O)c3cncc(C#Cc4cnc(N)c5ncccc45)c3)cc2C(F)(F)F)CC1` [Compound 16] yielded an IC50 (ABL1) of less than 5 nM, an IC50 (ABL1(T315I) [1]) of 40.7 nM and an IC50 (K562; anti-proliferation, 72 h) of 0.765 ± 0.005 nM. The IC50 (KCL22; anti-proliferation, 72 h) was 1.02 ± 0.04 nM, the IC50 (KCL22-IR; [4]) was 4.14 ± 0.11 nM and the IC50 (ABL1(T315I) [2]) was 26 ± 1.1 nM.
With `Cc1ncc(C(=O)Nc2ccc(CN3CCN(C)CC3)c(C(F)(F)F)c2)cc1C#Cc1cnc(N)c2ncccc12` [Compound 15] the IC50 (ABL1) was less than 5 nM, the IC50 (ABL1(T315I) [1]) was 4.7 nM and the IC50 (K562; anti-proliferation, 72 h) was 1.75 ± 0.04 nM. For the same compound, the IC50 (KCL22; anti-proliferation, 72 h) was 0.303 ± 0.002 nM, the IC50 (KCL22-IR; [4]) was 2.67 ± 0.07 nM and the IC50 (ABL1(T315I) [2]) was 18.9 ± 1.1 nM.
For `Cc1ccc(NC(=O)c2ccc(CN3CCN(C)CC3)cc2)cc1Nc1nccc(-c2cccnc2)n1` [Imatinib, reference compound], the IC50 (KCL22-IR; read-out: IC50 KCL22-IR (bound cells)) was greater than 1000 nM.
